Assay [1] has as its target Fibroblast growth factor receptor 2 (Homo sapiens) (UniProt P21802). As to conditions: Compound concentration 20.0 uM.
Description: Thermal Shift Assay. Domain: start/stop: T457-E768
The next assay deals with T1, Peregrin (Homo sapiens) (UniProt P55201).
T1 sequence (whole entry): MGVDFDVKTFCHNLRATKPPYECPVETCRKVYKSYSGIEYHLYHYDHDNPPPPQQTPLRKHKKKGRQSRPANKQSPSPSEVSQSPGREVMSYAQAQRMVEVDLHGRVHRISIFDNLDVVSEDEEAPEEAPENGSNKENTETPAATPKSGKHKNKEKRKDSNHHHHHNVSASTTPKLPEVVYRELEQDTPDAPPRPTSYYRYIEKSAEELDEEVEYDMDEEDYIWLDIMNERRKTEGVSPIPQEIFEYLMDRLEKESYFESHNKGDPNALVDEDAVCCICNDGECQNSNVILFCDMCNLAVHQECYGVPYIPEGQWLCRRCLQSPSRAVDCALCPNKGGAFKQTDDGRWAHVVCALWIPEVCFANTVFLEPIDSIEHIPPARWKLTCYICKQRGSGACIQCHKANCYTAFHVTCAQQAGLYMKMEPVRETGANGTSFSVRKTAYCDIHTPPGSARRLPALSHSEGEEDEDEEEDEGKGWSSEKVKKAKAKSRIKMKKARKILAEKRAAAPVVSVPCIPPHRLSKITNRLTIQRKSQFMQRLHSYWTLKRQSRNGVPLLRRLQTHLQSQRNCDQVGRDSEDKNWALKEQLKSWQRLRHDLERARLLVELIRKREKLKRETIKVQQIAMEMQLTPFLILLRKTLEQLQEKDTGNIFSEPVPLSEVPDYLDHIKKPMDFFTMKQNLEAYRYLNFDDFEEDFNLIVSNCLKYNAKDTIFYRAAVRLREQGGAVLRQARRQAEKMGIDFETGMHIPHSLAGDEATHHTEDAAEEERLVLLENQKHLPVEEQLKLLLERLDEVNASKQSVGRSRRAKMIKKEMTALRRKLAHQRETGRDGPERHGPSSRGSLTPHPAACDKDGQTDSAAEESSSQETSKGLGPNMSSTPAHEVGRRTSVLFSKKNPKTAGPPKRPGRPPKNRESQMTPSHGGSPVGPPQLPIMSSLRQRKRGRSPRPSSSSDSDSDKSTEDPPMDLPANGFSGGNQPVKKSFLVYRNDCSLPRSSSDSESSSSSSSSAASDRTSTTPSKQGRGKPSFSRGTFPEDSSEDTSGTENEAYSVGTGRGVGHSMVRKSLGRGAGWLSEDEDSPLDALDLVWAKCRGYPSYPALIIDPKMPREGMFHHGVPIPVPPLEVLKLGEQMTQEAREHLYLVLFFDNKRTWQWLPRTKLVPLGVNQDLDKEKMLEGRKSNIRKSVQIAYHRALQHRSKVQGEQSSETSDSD
The note with it: Compound concentration 20.0 uM.

Sequence of Fibroblast growth factor receptor 2 (Homo sapiens) (P21802 22-821 limits assumed): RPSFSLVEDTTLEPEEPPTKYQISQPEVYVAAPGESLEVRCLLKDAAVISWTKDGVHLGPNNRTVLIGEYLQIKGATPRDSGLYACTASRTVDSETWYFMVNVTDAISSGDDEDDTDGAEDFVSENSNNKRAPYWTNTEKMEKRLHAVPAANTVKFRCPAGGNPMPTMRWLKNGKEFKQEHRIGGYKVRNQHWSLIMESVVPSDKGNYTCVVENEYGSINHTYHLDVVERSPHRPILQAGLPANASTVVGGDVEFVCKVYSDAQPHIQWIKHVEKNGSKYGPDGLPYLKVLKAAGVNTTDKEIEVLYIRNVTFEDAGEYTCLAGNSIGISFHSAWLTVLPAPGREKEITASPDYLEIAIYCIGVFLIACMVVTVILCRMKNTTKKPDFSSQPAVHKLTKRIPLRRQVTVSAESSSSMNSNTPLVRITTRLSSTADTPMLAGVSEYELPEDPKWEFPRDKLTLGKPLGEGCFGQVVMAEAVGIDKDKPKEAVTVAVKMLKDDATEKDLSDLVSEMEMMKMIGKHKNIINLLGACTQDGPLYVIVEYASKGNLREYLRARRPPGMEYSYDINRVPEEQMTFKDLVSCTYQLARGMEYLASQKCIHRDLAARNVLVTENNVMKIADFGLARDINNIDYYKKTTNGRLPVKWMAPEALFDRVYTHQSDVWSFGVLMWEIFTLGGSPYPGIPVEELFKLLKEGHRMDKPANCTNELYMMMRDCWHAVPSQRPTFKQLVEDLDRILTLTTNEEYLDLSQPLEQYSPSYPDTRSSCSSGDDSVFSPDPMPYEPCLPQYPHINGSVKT

Turning to `COc1cc2c(NC3CCN(CC4CCCCC4)CC3)nc(N3CCCN(C(C)C)CC3)nc2cc1OCCCN1CCCCC1`, the ΔTm (commonly the change in melting temperature against a reference sample) in assay [1] is 0.65 °C; on Peregrin (Homo sapiens) it was -0.98 °C.
Turning to `Cc1nnn(C)c1-c1cnc2c3cc4cnn(C)c4cc3n([C@H](c3ccccc3)C3CCOCC3)c2c1`, the ΔTm is -0.32 °C in assay [1] and -0.09 °C on Peregrin (Homo sapiens).
For `Cc1cc(C)c(CNC(=O)c2cc(Cl)c3c(c2C)O[C@@](C)([C@H]2CC[C@H](N(C)C)CC2)O3)c(=O)[nH]1`, the ΔTm in assay [1] was -1.83 °C; on Peregrin (Homo sapiens), -0.71 °C.
In the same order, the values of `CC(=O)O[C@]1(C(C)=O)CC[C@H]2[C@@H]3C=C(Cl)C4=CC(=O)[C@@H]5C[C@@H]5[C@]4(C)[C@H]3CC[C@@]21C` are 0.57 °C and -1.28 °C.
On the same counts, the results for `NS(=O)(=O)OC[C@H]1C[C@@H](Nc2ccnc3cc(-c4cccc(SC(F)(F)F)c4)nn23)[C@H](O)[C@@H]1O` are -0.4 °C and 3.28 °C.
In the same order, the values of `CC(C)(C)c1ccc(S(=O)(=O)NCc2ccc(C(=O)Nc3cccnc3)cc2)cc1` are -0.54 °C and -0.61 °C.
For the compound `CS(=O)(=O)Nc1ccc(-c2coc3cc(OCc4cccc(C(=O)O)c4)ccc3c2=O)cc1`, the figures for the ΔTm (in assay [1]; at Peregrin (Homo sapiens)) were -0.06 °C and 1.08 °C, respectively.
On the same counts, the results for `N#C[C@@H]1C[C@@H]2C[C@@H]2N1C(=O)[C@@H](N)C12CC3CC(CC(O)(C3)C1)C2` are 0.29 °C and -0.63 °C.
Turning to `CSc1cccc(Nc2ncc3cc(-c4c(Cl)cccc4Cl)c(=O)n(C)c3n2)c1`, the ΔTm in assay [1] was -0.92 °C; on Peregrin (Homo sapiens), -0.8 °C.
As for `O=C(c1cc(Cc2n[nH]c(=O)c3ccccc23)ccc1F)N1CC(CNC2CC2)C1`, the ΔTm in assay [1] is -0.3 °C; at Peregrin (Homo sapiens), -0.32 °C.
In the same order, the values of `C[C@@H](COCCC(=O)N1CCN(c2ncc(C(F)(F)F)cn2)CC1)Nc1cn[nH]c(=O)c1C(F)(F)F` are 0.24 °C and 0.01 °C.
As for `CS(=O)(=O)c1ccc(-c2nnc(C=Cc3nnc(-c4ccc(C#N)cc4)o3)n2-c2ccccc2Cl)nc1`, the ΔTm in assay [1] stood at 0.13 °C; on Peregrin (Homo sapiens) (Protein concentration 2.0 uM) it was 2 °C.
Turning to `N#Cc1cccnc1N1CCN(C(=O)c2cccc(Cc3n[nH]c(=O)c4ccccc34)c2)CC1`, the ΔTm in assay [1] is -0.1 °C; at Peregrin (Homo sapiens), 1.88 °C.
In the same order, the values of `CCCC(NC(=O)C(CC(C)C)NC(=O)OCc1ccccc1)C(=O)C(=O)NCc1ccccn1` (racemic) are 0.15 °C and -1.7 °C.
In the same order, the values of `Nc1cccc(Nc2ncc(-c3ccc(Cl)cc3)o2)c1` are 2.1 °C and 4.7 °C.
Turning to `Cc1ncsc1-c1ccc(CNC(=O)[C@@H]2C[C@@H](O)CN2C(=O)[C@@H](NC(=O)COCCOCCOc2ccc(-c3ccc4ncnc(Nc5ccc(OCc6cccc(F)c6)c(Cl)c5)c4c3)cc2)C(C)(C)C)cc1`, the ΔTm was -3.99 °C in assay [1] and 0 °C at Peregrin (Homo sapiens).
Take `CNC(=O)c1cc(C(=O)NC2CC2)cn(Cc2ccccc2)c1=O`: the ΔTm in assay [1] is -1.38 °C; at Peregrin (Homo sapiens), 0.73 °C.
For `Cn1cc(NC(=O)c2cc(F)cc(F)c2)c(C(=O)NC2CCNCC2)n1`, the ΔTm in assay [1] was 0.66 °C; at Peregrin (Homo sapiens) it was -1.44 °C.
Take `O=c1cc(-c2ccc(O)cc2)oc2c(CN3CCN(Cc4cccs4)CC3)c(O)cc(O)c12`: the ΔTm in assay [1] came to 1.05 °C; at Peregrin (Homo sapiens) it was 3.1 °C.
With `OC1CN=C2c3ccn([C@@H]4O[C@H]([C@H](O)c5ccc(Cl)cc5)[C@@H](O)[C@H]4O)c3N=CN21` (stereo not given in full), the ΔTm in assay [1] was 0.52 °C; on Peregrin (Homo sapiens), -0.74 °C.
On the same counts, the results for `Nc1cc(F)ccc1NC(=O)c1ccc(CNC(=O)/C=C/c2cccnc2)cc1` are 0.58 °C and -0.89 °C.
With `Cn1c(OC[C@H]2CC[C@H](C(F)(F)F)CC2)nn2c(C3CCOCC3)ncc2c1=O`, the figures for the ΔTm (in assay [1]; at Peregrin (Homo sapiens)) were -0.94 °C and 2.25 °C, respectively.
On to `COc1cc(C)[nH]c(=O)c1CNC(=O)c1c(C)n([C@H](C)C2CCOCC2)c2ccccc12`, for which the values for the ΔTm (in assay [1]; at Peregrin (Homo sapiens)) were 0.42 °C and -1.84 °C, respectively.
In the same order, the values of `O=C1c2ccccc2C(=O)c2oc(-c3ccccc3)nc21` are -1.3 °C and 1.63 °C.
For `CC/C(=C(/CC)c1ccc(O)cc1)c1ccc(O)cc1`, the ΔTm in assay [1] was -8.29 °C; at Peregrin (Homo sapiens), -8.49 °C.
For the compound `CCc1c(-c2ccccc2)c(-c2ccccc2)nn1-c1ccccc1-c1cccc(OCC(=O)O)c1`, the values for the ΔTm (in assay [1]; at Peregrin (Homo sapiens)) were -1.61 °C and -3.01 °C, respectively.
Take `CC(C)(C)OC(=O)NCCCCCN(CCc1ccccc1)C(=O)n1cc(-c2ccc(OC(F)(F)F)cc2)nn1`: the values for the thermal shift (ΔTm) (in assay [1]; on Peregrin (Homo sapiens)) were -1.05 °C and 1.14 °C, respectively.
Regarding `CN(C)NC(=O)CCC(=O)O`, the results for the ΔTm (in assay [1]; on Peregrin (Homo sapiens)) were 0.18 °C and 0.25 °C, respectively.
On the same counts, the results for `O=C(O)Cc1ccc(Cc2cc(-c3cccc(Cl)c3)nc(C(F)(F)F)c2)cc1` are -0.76 °C and -0.4 °C.
As to `CCC(=O)N1CCOc2c(cc(-c3cc(OC)cc(OC)c3)cc2C(=O)N[C@H]2CCCN(C)C2)C1`, the values for the ΔTm (in assay [1]; at Peregrin (Homo sapiens)) were 0.29 °C and -0.83 °C, respectively.
On the same counts, the results for `CNc1nccc(CN([C@H]2CC[C@H](N)CC2)S(=O)(=O)c2ccc(S(=O)(=O)N(Cc3ccc(Cl)cc3)C3CCCC3)cc2)n1` are -1.14 °C and -1.21 °C.
Take `Cn1cc(-c2ccncc2)c(-c2ccc(OCc3ccc4ccccc4n3)cc2)n1`: the ΔTm in assay [1] was 0.48 °C; on Peregrin (Homo sapiens) it was 0.25 °C.
In the same order, the values of `Cn1c(=O)cc(N2CCC[C@@H](N)C2)n(Cc2ccccc2C#N)c1=O` are 0.81 °C and 2.35 °C.
Take `CC(C)c1c(-c2ccccc2)[nH]c2c(C#N)cnn2c1=O`: the ΔTm in assay [1] is -0.06 °C; on Peregrin (Homo sapiens), 1.31 °C.
Consider `O=C(NO)c1cnc(NC2(c3ccccc3)CC2)nc1`, for which the ΔTm in assay [1] is 0.35 °C; at Peregrin (Homo sapiens), -1.33 °C.
On the same counts, the results for `COc1cc2c(cc1-c1c(C)noc1C)[nH]c1nc(C)nc(Nc3cc(C4CC4)nn3C)c12` are -0.94 °C and 1.07 °C.
For `NS(=O)(=O)c1cc(-c2nnn[nH]2)c(NCc2cccs2)cc1Cl`, the ΔTm stood at 0.38 °C in assay [1] and 2 °C on Peregrin (Homo sapiens) (Protein concentration 2.0 uM).
As to `CC1(NC(=O)COc2cccc(-c3nc4c(c(Nc5ccc(-c6cn[nH]c6)cc5)n3)CN(C3CCC3)CC4)c2)CC1`, the ΔTm in assay [1] is -0.36 °C; on Peregrin (Homo sapiens), 1.53 °C.
On the same counts, the results for `C=C(C)[C@@H](CC=C(C)C)C[C@@]12C[C@@H](CC=C(C)C)C(C)(C)[C@@](CC=C(C)C)(C(=O)C(C(=O)c3ccc(O)c(O)c3)=C1O)C2=O` are -5.95 °C and -4.72 °C.
Take `N=C(N)SCc1ccc(CN2C(=O)C(=O)c3cc(C(F)(F)F)ccc32)cc1`: the ΔTm was found to be 0.77 °C in assay [1] and 0.27 °C at Peregrin (Homo sapiens).
In the case of `COC(=O)[C@@H]1CC2=CC(=O)CC[C@]2(C)[C@@]23O[C@@H]2C[C@@]2(C)[C@@H](CC[C@@]24CCC(=O)O4)[C@H]13`, the ΔTm in assay [1] is 1.06 °C; on Peregrin (Homo sapiens), -1.07 °C.
On the same counts, the results for `C[C@H](Nc1nc2c(cnn2C2CCCC2)c(=O)[nH]1)c1ccc(Cl)cc1` are 0.2 °C and 1.99 °C.
On to `CCNC(=O)NCCSC[C@H]1O[C@@H](n2cnc3c(N)ncnc32)[C@H](O)[C@@H]1O`, for which the values for the ΔTm (in assay [1]; on Peregrin (Homo sapiens)) were 0.95 °C and -1.31 °C, respectively.
For the compound `CCOc1ccc2nc(-c3cccc(OCC(=O)NC(C)C)c3)nc(Nc3ccc(-c4cn[nH]c4)cc3)c2c1`, the ΔTm was -0.59 °C in assay [1] and 2.82 °C at Peregrin (Homo sapiens).
Consider `CCNC(=O)c1cc2c(-c3cc(C(C)(C)O)ccc3Oc3c(C)cc(F)cc3C)cn(C)c(=O)c2[nH]1`, for which the ΔTm in assay [1] was determined as 0.28 °C; at Peregrin (Homo sapiens) it was 1.94 °C.
Regarding `COCc1nc(C(F)(F)F)[nH]c1-c1cc(C(=O)N2CC(c3ccc(C#N)cc3)C2)c(C)cc1C`, the ΔTm came to 0.03 °C in assay [1] and 1.19 °C at Peregrin (Homo sapiens).
On the same counts, the results for `N=C(N)N/N=C/c1cccc(Cl)c1Cl` are 0.87 °C and -0.71 °C.
For `NC(=O)C1CCCc2c1[nH]c1ccc(Cl)cc21` (stereo not given), the ΔTm was determined as 0.23 °C in assay [1] and 2.61 °C on Peregrin (Homo sapiens).
In the same order, the values of `N[C@H](C(=O)O)[C@H](OCc1cccc(NC(=O)c2ccc(C(F)(F)F)cc2)c1)C(=O)O` are -0.22 °C and 0.9 °C.
In the same order, the values of `COc1ncc(C)cc1CC[C@@](O)(CC(=O)O)C(=O)O` are 0.32 °C and 1.67 °C.
